According to patent publication US20220221458A1, “NOROVIRUS-BINDING PEPTIDE” (Kao Corporation, priority 2019, published 2022):

Target: GII.3 VLP
Test: Calculation of KD value by bio-layer interferometry (BLI method)
Type: binding, norovirus
Conditions: BLItz, GII.3 VLP 1 and 0.1 mg/mL; for Kd: biotinylated peptide 100 μM on SA chip, calculated from ka and kd; for ka / kd: peptide 100 μM on SA chip
Description: <Calculation of KD Value by Bio-Layer Interferometry: BLI Method>
The apparatus used was BLItz™ (manufactured by ForteBio). The tip of SA chip (manufactured by ForteBio) was kept in contact with purified water for 1 minute for hydration and was then kept in contact with a 1% BSA aqueous solution for 1 hour for blocking. The SA chip subjected to blocking treatment was set to the measuring unit of the BLItz™ main body, and measurement was performed according to the program shown in Table 14. The peptides of SEQ ID NOs: 1, 21, and 28 were used, and the concentration was adjusted to 100 μM. The concentration of the GII.3 VLP was adjusted to 1 and 0.1 mg/mL. The measurement data were analyzed using the attached software, and the KD value was calculated based on the Ka and Kd values.

Row | Substance | Kd [µM] | ka [M⁻¹ s⁻¹] | kd [s⁻¹]
1 | GKFFCH [SEQ ID NO: 21] | 107 | 358 | 0.0382
2 | GRRYYI [SEQ ID NO: 1] | 6.01 | 9070 | 0.0546
3 | VMMQCP [SEQ ID NO: 28] | 218 | 230 | 0.05
